The text below walks through data of patent US20220002279A1, “NOVEL IMIDAZOLE DERIVATIVE” (priority 2018, published 2022).

By MIC is commonly meant the smallest concentration in the dilution series that meets the test's criterion for growth inhibition.

Converted amounts (≈) assume the structure as drawn. Some results are limits rather than exact numbers.

Experiment in all cases: Antimicrobial activity, MIC by broth microdilution
What all share (format): cell-based
(In general: Dilution methods test growth across graded concentrations, often in twofold steps.)

Assay [1] relates to Klebsiella pneumoniae strain ATCC13883. The settings on record: ATCC13883, cation-adjusted Mueller-Hinton broth, about 5×10^5 CFU/mL, 35° C., about 18 hours, read-out: MIC Klebsiella pneumoniae ATCC13883. From the text: (§1) Test Example 4 Evaluation of the Antimicrobial Activity
(§2) For minimum inhibitory concentration (MIC) measurement, the following broth microdilution method was applied as adapted from the standard procedure recommended by the CLSI (Clinical and Laboratory Standards Institute).
(§3) The bacteria used were Pseudomonas aeruginosa strain ATCC27853, Escherichia coli strain ATCC25922, and Klebsiella pneumoniae strain ATCC13883. After culture overnight on a heart infusion agar medium, the cells of a test bacterium were scraped off, and a bacterial solution suspended to have a turbidity of level 0.5 on the McFarland scale was diluted and used as an inoculum solution. The inoculum solution was inoculated in a cation-adjusted Mueller-Hinton broth medium containing a test compound so that the final inoculation concentration was about 5×10^5 CFU/mL, and cultured at 35° C. for about 18 hours. A minimum drug concentration at which no cell growth was visible to the naked eye was designated as MIC. […] In the table, ND represents the case where suppression of the cell growth in a drug concentration-dependent manner was not observed (Not Determined), and NT represents that no test was conducted (Not Tested).

The test system of assay [2] is Escherichia coli strain ATCC25922. Particulars: ATCC25922, 18 h, cation-adjusted Mueller-Hinton broth, about 5×10^5 CFU/mL, 35° C., about 18 hours, read-out: MIC Escherichia coli ATCC25922.
From the text: as §1, §2, §3

Assay [3] deals with Pseudomonas aeruginosa strain ATCC27853. Particulars: ATCC27853, 18 h, cation-adjusted Mueller-Hinton broth, about 5×10^5 CFU/mL, 35° C., about 18 hours, read-out: MIC Pseudomonas aeruginosa ATCC27853.
From the text: as §1, §2, §3

As to `C[C@H](O)c1nccn1Cc1cc(-c2ccc(C#C[C@H]3C[C@H](N)C3)cc2)on1` [Compound 23, (1S)-1-{1-[(5-(4-[(trans-3-aminocyclobutyl)ethynyl]phenyl}-1,2-oxazol-3-yl)methyl]-1H-imidazol-2-yl}ethan-1-ol], the MIC turned out to be 8 µg/mL (≈ 22.1 µM) in assay [1], 4 µg/mL (≈ 11 µM) in assay [2] and 16 µg/mL (≈ 44.1 µM) in assay [3].
With `C[C@H](O)c1nccn1Cc1cc(-c2ccc(C#CCN)cc2)on1` [Compound 30, (1S)-1-[l-({5-[4-(3-aminoprop-1-yn-1-yl)phenyl]-1,2-oxazol-3-yl}methyl)-1H-imidazol-2-yl]ethan-1-ol], the results for the MIC in assay [1], in assay [2] and in assay [3] were above 128 µg/mL, 64 µg/mL (≈ 199 µM) and 64 µg/mL (≈ 199 µM), respectively.
Take `CNC[C@H](c1cc(-c2ccc(C#C[C@@H]3[C@H]4CN(CCO)C[C@@H]34)cc2)on1)n1ccnc1[C@H](C)O` [Compound 38, (1S)-1-{1-[(1R)-1-[5-(4-{[(1R,5S,6s)-3-(2-Hydroxyethyl)-3-azabicyclo[3.1.0]hexan-6-yl]ethynyl}phenyl)-1,2-oxazol-3-yl]-2-(methylamino)ethyl]-1H-imidazol-2-yl}ethan-1-ol]: the MIC came to 2 µg/mL (≈ 4.33 µM) in assay [2] and 4 µg/mL (≈ 8.67 µM) in assay [3].
Consider `C[C@H](O)c1nccn1Cc1cc(-c2ccc(C#C[C@H]3C[C@H](O)C3)cc2)on1` [Compound 54, trans-3-({4-[3-({2-[(1S)-1-Hydroxyethyl]-1H-imidazol-1-yl}methyl)-1,2-oxazol-5-yl]phenyl}ethynyl)cyclobutan-1-ol], for which the figures for the MIC in assay [1], in assay [2] and in assay [3] were 0.25 µg/mL (≈ 0.688 µM), 0.12 µg/mL (≈ 0.33 µM) and 16 µg/mL (≈ 44 µM), respectively.
`C[C@H](O)c1nccn1[C@H](CN)c1cc(-c2ccc(C#CC3C4COCC34)cc2)on1` (stereo partly drawn) [Compound 58, (1S)-1-{1-[(1R)-2-amino-1-(5-{4-[(3-oxabicyclo[3.1.0]hexan-6-yl)ethynyl]phenyl}-1,2-oxazol-3-yl)ethyl]-1H-imidazol-2-yl} ethan-1-ol]: the MIC in assay [3] was determined as 8 µg/mL (≈ 19.8 µM).
Regarding `C[C@H](O)c1nccn1[C@H](CN)c1cc(-c2ccc(C#CC3CC3)cc2)on1` [Compound 60, (1S)-1-{1-[(1R)-2-amino-1-(5-[4-(cyclopropylethynyl)phenyl]-1,2-oxazol-3-yl}ethyl]-1H-imidazol-2-yl}ethan-1-ol], the MIC in assay [1] stood at 0.25 µg/mL (≈ 0.69 µM); in assay [2] it was 0.25 µg/mL (≈ 0.69 µM); in assay [3], 8 µg/mL (≈ 22.1 µM).
`C[C@H](O)c1nccn1Cc1cc(-c2ccc(C#C[C@@H]3[C@H]4CN(CCCC(=O)O)C[C@@H]34)cc2)on1` [Compound 67, 4-[(1R,5S,6s)-6-({4-[3-({2-[(1S)-1-Hydroxyethyl]-1H-imidazol-1-yl}methyl)-1,2-oxazol-5-yl]phenyl}ethynyl)-3-azabicyclo[3.1.0]hexan-3-yl]butanoic acid]: the MIC was 4 µg/mL (≈ 8.69 µM) in assay [1], 2 µg/mL (≈ 4.34 µM) in assay [2] and 8 µg/mL (≈ 17.4 µM) in assay [3].
The like results for `C[C@H](O)c1nccn1[C@H](CN)c1cc(-c2ccc(C#CC3CCOC3)cc2)on1` (stereo partly drawn) [Compound 75, (1S)-1-{1-[(1R)-2-amino-1-(5-{4-[(oxolan-3-yl)ethynyl]phenyl}-1,2-oxazol-3-yl)ethyl]-1H-imidazol-2-yl} ethan-1-ol] were, in that order, 2 µg/mL (≈ 5.1 µM), 0.25 µg/mL (≈ 0.637 µM) and 64 µg/mL (≈ 163 µM).
The like results for `C[C@H](O)c1nccn1Cc1cc(-c2ccc(C#C[C@H]3C[C@@H](O)C3)cc2)on1` [Compound 88, cis-3-({4-[3-((2-[(1S)-1-Hydroxyethyl]-1H-imidazol-1-yl}methyl)-1,2-oxazol-5-yl]phenyl}ethynyl)cyclobutan-1-ol] were, in that order, 0.25 µg/mL (≈ 0.688 µM), 0.12 µg/mL (≈ 0.33 µM) and 16 µg/mL (≈ 44 µM).
For `C[C@H](O)c1nccn1[C@H](CN)c1cc(-c2ccc(C#C[C@H]3C[C@@](O)(CO)C3)cc2)on1` [Compound 89, trans-3-[(4-(3-[(1R)-2-Amino-1-{2-[(1S)-1-hydroxyethyl]-1H-imidazol-1-yl}ethyl]-1,2-oxazol-5-yl}phenyl)ethynyl]-1-(hydroxymethyl)cyclobutan-1-ol], the values for the MIC in assay [1], in assay [2] and in assay [3] were 8 µg/mL (≈ 18.9 µM), 2 µg/mL (≈ 4.73 µM) and 4 µg/mL (≈ 9.47 µM), respectively.
As for `C[C@H](O)c1nccn1[C@H](CN)c1cc(-c2ccc(C#C[C@H]3C[C@](O)(CO)C3)cc2)on1` [Compound 90, cis-3-[(4-{3-[(1R)-2-amino-1-{2-[(1S)-1-hydroxyethyl]-1H-imidazol-1-yl}ethyl]-1,2-oxazol-5-yl}phenyl)ethynyl]-1-(hydroxymethyl)cyclobutan-1-ol], the MIC in assay [1] is 8 µg/mL (≈ 18.9 µM); in assay [2], 4 µg/mL (≈ 9.47 µM); in assay [3], 4 µg/mL (≈ 9.47 µM).
For `CC(=O)N1C[C@@H]2[C@@H](C#Cc3ccc(-c4cc([C@@H](CN)n5ccnc5[C@H](C)O)no4)cc3)[C@@H]2C1` [Compound 91, 1-{(1R,5S,6s)-6-[(4-{3-[(1R)-2-Amino-1-{2-[(1S)-1-hydroxyethyl]-1H-imidazol-1-yl}ethyl]-1,2-oxazol-5-yl}phenyl)ethynyl]-3-azabicyclo[3.1.0]hexan-3-yl}ethan-1-one], the MIC in assay [1] came out at 8 µg/mL (≈ 18 µM); in assay [3] it was 32 µg/mL (≈ 71.8 µM).
On to `C[C@H](O)c1nccn1[C@H](CN)c1cc(-c2ccc(C#C[C@H]3C[C@H](O)C3)cc2)no1` [Compound 100, trans-3-[(4-{5-[(1R)-2-amino-1-{2-[(1S)-1-hydroxyethyl]-1H-imidazol-1-yl}ethyl]-1,2-oxazol-3-yl}phenyl)ethynyl]cyclobutan-1-ol], for which the MIC in assay [1] came to 4 µg/mL (≈ 10.2 µM).
Regarding `COCCN1C[C@@H]2[C@@H](C#Cc3ccc(-c4cc([C@@H](CN)n5ccnc5[C@H](C)O)no4)cc3)[C@@H]2C1` [Compound 101, (1S)-1-(1-{(1R)-2-Amino-1-[5-(4-{[(1R,5S,6s)-3-(2-methoxyethyl)-3-azabicyclo[3.1.0]hexan-6-yl]ethynyl}phenyl)-1,2-oxazol-3-yl]ethyl}-1H-imidazol-2-yl)ethan-1-ol], the results for the MIC in assay [1], in assay [2] and in assay [3] were 1 µg/mL (≈ 2.17 µM), 0.5 µg/mL (≈ 1.08 µM) and 2 µg/mL (≈ 4.33 µM), respectively.
On to `C[C@H](O)c1nccn1[C@H](CN)c1cc(-c2ccc(C#CC3CC(C(=O)O)C3)cc2)on1` (stereo partly drawn) [Compound 130, 3-[(4-{3-{(1R)-2-amino-1-(2-[(1S)-1-hydroxyethyl]-1H-imidazol-1-yl}ethyl]-1,2-oxazol-5-yl}phenyl)ethynyl]cyclobutane-1-carboxylate], for which the MIC in assay [1] came to 32 µg/mL (≈ 76.1 µM); in assay [3] it was 8 µg/mL (≈ 19 µM).
As to `C[C@H](O)c1nccn1[C@H](CN)c1cc(-c2ccc(C#C[C@H]3C[C@H](NCCO)C3)cc2)on1` [Compound 134, (1S)-1-{1-[(1R)-2-amino-1-{5-[4-({trans-3-[(2-hydroxyethyl)amino]cyclobutyl}ethynyl)phenyl]-1,2-oxazol-3-yl}ethyl]-1H-imidazol-2-yl}ethan-1-ol], the values for the MIC in assay [1] and in assay [3] were 32 µg/mL (≈ 73.5 µM) and 4 µg/mL (≈ 9.18 µM), respectively.
With `C[C@H](O)c1nccn1[C@H](CN)c1cc(-c2ccc(C#C[C@@H]3[C@H]4CN(C[C@@H](C)O)C[C@@H]34)cc2)on1` [Compound 137, (R)-1-((1R,5S,6R)-6-((4-(3-((R)-2-amino-1-(2-((S)-1-hydroxyethyl)-1H-imidazol-1-yl)ethyl)isoxazol-5-yl)phenyl)ethynyl)-3-azabicyclo[3.1.0]hexan-3-yl)propan-2-ol], the MIC in assay [1] and in assay [3] was 4 µg/mL (≈ 8.67 µM) each time.
